In general, Ki refers to the equilibrium dissociation constant of an inhibitor or competing ligand from its target. A lower Ki goes with higher affinity.

Serine protease 1, sequence (P07477 whole entry): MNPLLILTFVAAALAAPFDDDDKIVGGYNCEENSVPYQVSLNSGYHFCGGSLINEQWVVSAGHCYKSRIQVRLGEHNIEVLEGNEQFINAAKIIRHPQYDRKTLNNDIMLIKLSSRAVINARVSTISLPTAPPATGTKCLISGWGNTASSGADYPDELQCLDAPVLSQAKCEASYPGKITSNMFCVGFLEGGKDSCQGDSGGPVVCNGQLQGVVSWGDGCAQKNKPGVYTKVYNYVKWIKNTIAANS

In one assay the target is Kallikrein-1 (Homo sapiens, UniProt P06870). Kind of assay: Compound was evaluated for its inhibitory activity against Kallikrein.
Kallikrein-1, sequence (P06870 whole entry): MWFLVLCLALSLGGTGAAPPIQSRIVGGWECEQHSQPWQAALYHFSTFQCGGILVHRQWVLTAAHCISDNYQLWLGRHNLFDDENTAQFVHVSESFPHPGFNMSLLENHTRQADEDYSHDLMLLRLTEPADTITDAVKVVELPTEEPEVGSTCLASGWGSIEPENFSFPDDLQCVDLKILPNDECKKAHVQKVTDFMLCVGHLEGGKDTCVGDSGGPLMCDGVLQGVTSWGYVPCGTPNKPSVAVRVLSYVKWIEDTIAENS
Compound `COC(=O)C1C(CCc2ccccc2)=CC(C(=O)NC(CCCCN)C(=O)C(=O)NCCc2ccc(C(N)=O)cc2)n2c(=O)n(Cc3cc(F)ccc3F)c(=O)n21` (stereo not drawn) yielded a Ki of 21 nM.
On the same count and under the same terms, the value for `CC1(C)C2CC3C(=CC(C(=O)NC(CCCCN)C(=O)C(=O)NCCc4ccc(C(N)=O)cc4)n4c(=O)n(Cc5ccc(Cl)c(Cl)c5)c(=O)n43)C1C2` (stereo not drawn) was 31 nM.

The target in a further assay is Tryptase (Homo sapiens, UniProt Q9BZJ3+Q15661+Q9NRR2). Kind of assay: Compound was evaluated for its binding affinity to the tryptase. It counts as protein assay.
As to `CC1=CC(C(=O)NC(CCCCN)C(=O)C(=O)NCCc2ccc(C(N)=O)cc2)n2c(=O)n(C(c3ccccc3)c3ccccc3)c(=O)n2C1` (stereo not drawn), the Ki is reported as 5.9 nM.

A further assay has as its target Prothrombin (Homo sapiens, UniProt P00734). Kind of assay: Compound was evaluated for its binding affinity to the thrombin.
`NCCCCC(NC(=O)C1C=CCn2c(=O)n(CC(c3ccccc3)c3ccccc3)c(=O)n21)C(=O)C(=O)NCCc1ccc(C(N)=O)cc1` (stereo not drawn) came in with a Ki of 0.3 nM. That is a sub-nanomolar value.
Same read-out and setting: as for `CCCCC1(CCCC)C(=O)N2CC(C)=CC(C(=O)NC(CCCCN)C(=O)C(=O)NCCc3ccc(C(N)=O)cc3)N2C1=O` (stereo not drawn), the figure is 0.2 nM; as for `CC1=CC(C(=O)NC(CCCCN)C(=O)C(=O)NCCc2ccc(C(N)=O)cc2)N2C(=O)C(CC(C)C)(CC(C)C)C(=O)N2C1` (stereo not drawn), 5.09 nM.
Still for that read-out and setting: as for `CCC1(N)C(=O)N2C(Cc3ccccc3)C=CC(C(=O)NC(CCCCN)C(=O)C(N)=O)N2C1=O` (stereo not drawn), the figure is 4.33 nM.
The same measure, in the same setting: the value for `CC1=CC(C(=O)NC(CCCCN)C(=O)C(=O)NCc2ccc(C(N)=O)cc2)N2C(=O)C(N)(Cc3ccccc3)C(=O)N2C1` (stereo not drawn) was 1.58 nM; that for `CC1=CC(C(=O)NC(CCCCN)C(=O)C(=O)NCCc2ccc(C(N)=O)cc2)N2C(=O)C(Cc3ccccc3)(Cc3ccccc3)C(=O)N2C1` (stereo not drawn) was 1.89 nM; that for `CC1=CC(C(=O)NC(CCCCN)C(=O)C(=O)NCCc2ccc(C(N)=O)cc2)n2c(=O)n(CC(c3ccccc3)c3ccccc3)c(=O)n2C1` (stereo not drawn) was 0.035 nM.
Regarding `C=CCC1(CC=C)C(=O)N2CC(C)=CC(C(=O)NC(CCCCN)C(=O)C(=O)NCCc3ccc(C(N)=O)cc3)N2C1=O` (stereo not drawn), the Ki came out at 18 nM. Against the preceding compound, the Ki is about 510-fold higher.

The next assay concerns the target Serine protease 1 (Homo sapiens, UniProt P07477). Kind of assay: Compound was evaluated for its binding affinity to the trypsin enzyme.
As for `COc1ccc(-n2c(=O)n3n(c2=O)C(C(=O)NC(CCCCN)C(=O)C(=O)NCCc2ccc(C(N)=O)cc2)C=CC3CC(C)C)cc1` (stereo not drawn), the affinity, expressed as Ki, was 0.28 nM.
In the case of `CC(C)CCn1c(=O)n2n(c1=O)C(C(=O)NC(CCCCN)C(=O)C(=O)NCCc1ccc(C(N)=O)cc1)C=CC2CC(C)C` (stereo not drawn), the affinity corresponds to a Ki of 0.43 nM. Compared with the last compound, the Ki is about 1.5-fold higher.

Values taken from ChEMBL document CHEMBL1130946, “Highly efficient and versatile synthesis of libraries of constrained beta-strand mimetics” (Bioorg Med Chem Lett, 1998).
